Data as given in PubChem BioAssay AID1918934 (Molecular Pharmacology Branch, DTP, NCI, 2023).

Test system: 292921-168-R-J2-PDC complex spheroid viability
Test: Anticancer human tumor 292921-168-R-J2-PDC patient-derived pancreatic carcinoma cell line growth inhibition
Conditions: for IC50: curve of first compound; for viability, T/C: stronger effect = lower value
Outline: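 Drug combinations with the LSD1 inhibitor iadademstat tested on tumor cells co-cultured as spheroids with endothelial cells and mesenchymal stem cells. Concentrations descended in half-log increments from clinical Cmax or 10 microM.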

[1] = second compound 0.1 µM, first compound 0.00316 µM
[2] = second compound 0.1 µM, first compound 0.01 µM
[3] = second compound 0.1 µM, first compound 0.0316 µM
[4] = second compound 0.1 µM, first compound 0.1 µM
[5] = second compound 0.1 µM, first compound 0.316 µM
[6] = second compound 0.1 µM, first compound 1 µM
[7] = second compound 0.316 µM, first compound 0.00316 µM
[8] = second compound 0.316 µM, first compound 0.01 µM
[9] = second compound 0.316 µM, first compound 0.0316 µM
[10] = second compound 0.316 µM, first compound 0.1 µM
[11] = second compound 0.316 µM, first compound 0.316 µM
[12] = second compound 0.316 µM, first compound 1 µM
[13] = second compound 1 µM, first compound 0.00316 µM
[14] = second compound 1 µM, first compound 0.01 µM
[15] = second compound 1 µM, first compound 0.0316 µM
[16] = second compound 1 µM, first compound 0.1 µM
[17] = second compound 1 µM, first compound 0.316 µM
[18] = second compound 1 µM, first compound 1 µM
[19] = second compound 3.16 µM, first compound 0.00316 µM
[20] = second compound 3.16 µM, first compound 0.01 µM
[21] = second compound 3.16 µM, first compound 0.0316 µM
[22] = second compound 3.16 µM, first compound 0.1 µM
[23] = second compound 3.16 µM, first compound 0.316 µM
[24] = second compound 3.16 µM, first compound 1 µM
[25] = second compound 10 µM, first compound 0.00316 µM
[26] = second compound 10 µM, first compound 0.01 µM
[27] = second compound 10 µM, first compound 0.0316 µM
[28] = second compound 10 µM, first compound 0.1 µM
[29] = second compound 10 µM, first compound 0.316 µM
[30] = second compound 10 µM, first compound 1 µM
[31] = second compound 0.1 µM, first compound 0.00949 µM
[32] = second compound 0.1 µM, first compound 0.03 µM
[33] = second compound 0.1 µM, first compound 0.0949 µM
[34] = second compound 0.1 µM, first compound 0.3 µM
[35] = second compound 0.316 µM, first compound 0.00949 µM
[36] = second compound 0.316 µM, first compound 0.03 µM
[37] = second compound 0.316 µM, first compound 0.0949 µM
[38] = second compound 0.316 µM, first compound 0.3 µM
[39] = second compound 1 µM, first compound 0.00949 µM
[40] = second compound 1 µM, first compound 0.03 µM
[41] = second compound 1 µM, first compound 0.0949 µM
[42] = second compound 1 µM, first compound 0.3 µM
[43] = second compound 3.16 µM, first compound 0.00949 µM
[44] = second compound 3.16 µM, first compound 0.03 µM
[45] = second compound 3.16 µM, first compound 0.0949 µM
[46] = second compound 3.16 µM, first compound 0.3 µM
[47] = second compound 10 µM, first compound 0.00949 µM
[48] = second compound 10 µM, first compound 0.03 µM
[49] = second compound 10 µM, first compound 0.0949 µM
[50] = second compound 10 µM, first compound 0.3 µM
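Also: seven day compound exposure before luminescent viability read.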
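For viability, T/C in this document: 100% = DMSO vehicle control wells.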

CC1COCCN1c1cc(-c2ccnn2C)c2ccnc(-c3ccn[nH]3)c2n1 (stereo not given) + NC1CC1c1ccc(-c2cccc(O)c2)cc1
IC50 (second compound 0.1 µM): < 3.16 nM
IC50 (second compound 0.316 µM): < 3.16 nM
IC50 (second compound 1 µM): < 3.16 nM
IC50 (second compound 3.16 µM): < 3.16 nM
IC50 (second compound 10 µM): < 3.16 nM
viability, T/C [1]: 16.9%
viability, T/C [2]: 15.3%
viability, T/C [3]: 14.2%
viability, T/C [4]: 15.7%
viability, T/C [5]: 16.2%
viability, T/C [6]: 17.7%
viability, T/C [7]: 17.2%
viability, T/C [8]: 14.9%
viability, T/C [9]: 13.2%
viability, T/C [10]: 14.3%
viability, T/C [11]: 15.9%
viability, T/C [12]: 16.7%
viability, T/C [13]: 17.7%
viability, T/C [14]: 15.4%
viability, T/C [15]: 14.1%
viability, T/C [16]: 12.7%
viability, T/C [17]: 16.8%
viability, T/C [18]: 20.3%
viability, T/C [19]: 15.2%
viability, T/C [20]: 15.4%
viability, T/C [21]: 14.7%
viability, T/C [22]: 13.7%
viability, T/C [23]: 14.9%
viability, T/C [24]: 17%
viability, T/C [25]: 15.1%
viability, T/C [26]: 14.6%
viability, T/C [27]: 14.6%
viability, T/C [28]: 13.5%
viability, T/C [29]: 15.1%
viability, T/C [30]: 17.1%

CC1COCCN1c1cc(C2(S(C)(=N)=O)CC2)nc(-c2ccnc3[nH]ccc23)n1 (stereo not given) + NC1CC1c1ccc(-c2cccc(O)c2)cc1
IC50 (second compound 0.1 µM): 368 nM
IC50 (second compound 0.316 µM): 318 nM
IC50 (second compound 1 µM): 293 nM
IC50 (second compound 3.16 µM): 253 nM
IC50 (second compound 10 µM): 104 nM
viability, T/C [3]: 88.3%
viability, T/C [4]: 82%
viability, T/C [5]: 51%
viability, T/C [6]: 28.8%
viability, T/C (second compound 0.1 µM, first compound 3.16 µM): 15.2%
viability, T/C (second compound 0.1 µM, first compound 10 µM): 11.4%
viability, T/C [9]: 66.8%
viability, T/C [10]: 58.8%
viability, T/C [11]: 51.8%
viability, T/C [12]: 26.5%
viability, T/C (second compound 0.316 µM, first compound 3.16 µM): 15.4%
viability, T/C (second compound 0.316 µM, first compound 10 µM): 11.4%
viability, T/C [15]: 63.1%
viability, T/C [16]: 61.6%
viability, T/C [17]: 48.9%
viability, T/C [18]: 25.5%
viability, T/C (second compound 1 µM, first compound 3.16 µM): 13.2%
viability, T/C (second compound 1 µM, first compound 10 µM): 11.5%
viability, T/C [21]: 59.4%
viability, T/C [22]: 63.6%
viability, T/C [23]: 46.3%
viability, T/C [24]: 23.2%
viability, T/C (second compound 3.16 µM, first compound 3.16 µM): 13.7%
viability, T/C (second compound 3.16 µM, first compound 10 µM): 11.8%
viability, T/C [27]: 50.9%
viability, T/C [28]: 53.3%
viability, T/C [29]: 39.6%
viability, T/C [30]: 27.1%
viability, T/C (second compound 10 µM, first compound 3.16 µM): 12.2%
viability, T/C (second compound 10 µM, first compound 10 µM): 11.4%

CCN(c1cc(-c2ccc(CN3CCOCC3)cc2)cc(C(=O)NCc2c(C)cc(C)[nH]c2=O)c1C)C1CCOCC1 + NC1CC1c1ccc(-c2cccc(O)c2)cc1
IC50 (second compound 0.1 µM): 1080 nM
IC50 (second compound 0.316 µM): 1020 nM
IC50 (second compound 1 µM): 1100 nM
IC50 (second compound 3.16 µM): 1070 nM
IC50 (second compound 10 µM): 763 nM
viability, T/C [31]: 77.2%
viability, T/C [32]: 79.2%
viability, T/C [33]: 81.9%
viability, T/C [34]: 77.1%
viability, T/C (second compound 0.1 µM, first compound 0.949 µM): 53.5%
viability, T/C (second compound 0.1 µM, first compound 3 µM): 22.1%
viability, T/C [35]: 69.5%
viability, T/C [36]: 82.7%
viability, T/C [37]: 77.5%
viability, T/C [38]: 71.7%
viability, T/C (second compound 0.316 µM, first compound 0.949 µM): 51.9%
viability, T/C (second compound 0.316 µM, first compound 3 µM): 21.7%
viability, T/C [39]: 68.6%
viability, T/C [40]: 72%
viability, T/C [41]: 68.8%
viability, T/C [42]: 68.4%
viability, T/C (second compound 1 µM, first compound 0.949 µM): 54.5%
viability, T/C (second compound 1 µM, first compound 3 µM): 19.4%
viability, T/C [43]: 70.7%
viability, T/C [44]: 75.3%
viability, T/C [45]: 70.2%
viability, T/C [46]: 64.5%
viability, T/C (second compound 3.16 µM, first compound 0.949 µM): 54.1%
viability, T/C (second compound 3.16 µM, first compound 3 µM): 22.3%
viability, T/C [47]: 62.7%
viability, T/C [48]: 62.5%
viability, T/C [49]: 62.5%
viability, T/C [50]: 60.2%
viability, T/C (second compound 10 µM, first compound 0.949 µM): 47.6%
viability, T/C (second compound 10 µM, first compound 3 µM): 21.8%

Nc1ncn(C2CC(O)C(CO)S2)c(=O)n1 (stereo not given) + NC1CC1c1ccc(-c2cccc(O)c2)cc1
IC50 (second compound 0.1 µM): 61.3 nM
IC50 (second compound 0.316 µM): 53.1 nM
IC50 (second compound 1 µM): 50.3 nM
IC50 (second compound 3.16 µM): 40 nM
IC50 (second compound 10 µM): 36.5 nM
viability, T/C (second compound 0.1 µM, first compound 0.000949 µM): 83%
viability, T/C (second compound 0.1 µM, first compound 0.003 µM): 80.8%
viability, T/C [31]: 73.2%
viability, T/C [32]: 62.2%
viability, T/C [33]: 42.7%
viability, T/C [34]: 11.5%
viability, T/C (second compound 0.316 µM, first compound 0.000949 µM): 66.8%
viability, T/C (second compound 0.316 µM, first compound 0.003 µM): 73.2%
viability, T/C [35]: 63.9%
viability, T/C [36]: 63.1%
viability, T/C [37]: 37.3%
viability, T/C [38]: 13.3%
viability, T/C (second compound 1 µM, first compound 0.000949 µM): 63.9%
viability, T/C (second compound 1 µM, first compound 0.003 µM): 67%
viability, T/C [39]: 74.4%
viability, T/C [40]: 56.9%
viability, T/C [41]: 38.5%
viability, T/C [42]: 12.8%
viability, T/C (second compound 3.16 µM, first compound 0.000949 µM): 67.5%
viability, T/C (second compound 3.16 µM, first compound 0.003 µM): 66.8%
viability, T/C [43]: 62.6%
viability, T/C [44]: 55.1%
viability, T/C [45]: 36%
viability, T/C [46]: 12.8%
viability, T/C (second compound 10 µM, first compound 0.000949 µM): 55.2%
viability, T/C (second compound 10 µM, first compound 0.003 µM): 62%
viability, T/C [47]: 59.9%
viability, T/C [48]: 52.8%
viability, T/C [49]: 33.6%
viability, T/C [50]: 15.5%

O=C(C=Cn1cnc(-c2cc(C(F)(F)F)cc(C(F)(F)F)c2)n1)NNc1cnccn1 + NC1CC1c1ccc(-c2cccc(O)c2)cc1
IC50 (second compound 0.1 µM): 3.26 nM
IC50 (second compound 0.316 µM): 3.41 nM
IC50 (second compound 1 µM): < 3.16 nM
IC50 (second compound 3.16 µM): 4.57 nM
IC50 (second compound 10 µM): 3.76 nM
viability, T/C [1]: 48.3%
viability, T/C [2]: 49.7%
viability, T/C [3]: 26.2%
viability, T/C [4]: 12.7%
viability, T/C [5]: 7.08%
viability, T/C [6]: 6.49%
viability, T/C [7]: 50%
viability, T/C [8]: 45%
viability, T/C [9]: 22.3%
viability, T/C [10]: 11.1%
viability, T/C [11]: 7.37%
viability, T/C [12]: 6.26%
viability, T/C [13]: 47.8%
viability, T/C [14]: 42.7%
viability, T/C [15]: 23%
viability, T/C [16]: 11.8%
viability, T/C [17]: 6.36%
viability, T/C [18]: 6.66%
viability, T/C [19]: 51.8%
viability, T/C [20]: 46%
viability, T/C [21]: 24%
viability, T/C [22]: 14.4%
viability, T/C [23]: 7.81%
viability, T/C [24]: 7.38%
viability, T/C [25]: 50.7%
viability, T/C [26]: 46.3%
viability, T/C [27]: 33.5%
viability, T/C [28]: 17.6%
viability, T/C [29]: 9.43%
viability, T/C [30]: 8.53%
